Test results: PubChem BioAssay (NCI)
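Five concentrations, 48 hours, 96-well plates. The concentration for 50% growth inhibition is given as GI50. TGI marks complete inhibition of growth.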

Key:
Test in all cases: NCI-60 cell line screen, 48 h
[1] = test system: 786-0 renal
[2] = test system: A549 NSCLC
[3] = test system: ACHN renal
[4] = test system: BT-549 breast
[5] = test system: CAKI-1 renal
[6] = test system: CCRF-CEM leukemia
[7] = test system: COLO 205 colon
[8] = test system: EKVX NSCLC
[9] = test system: HCT-116 colon
[10] = test system: HCT-15 colon
[11] = test system: HL-60(TB) leukemia
[12] = test system: HOP-62 NSCLC
[13] = test system: HOP-92 NSCLC
[14] = test system: HS 578T breast
[15] = test system: HT29 colon
[16] = test system: IGROV1 ovarian
[17] = test system: K-562 leukemia
[18] = test system: KM12 colon
[19] = test system: M14 melanoma
[20] = test system: MALME-3M melanoma
[21] = test system: MCF7 breast
[22] = test system: MDA-MB-231 breast
[23] = test system: MDA-MB-435
[24] = test system: MOLT-4 leukemia
[25] = test system: NCI-H226 lung
[26] = test system: NCI-H23 lung
[27] = test system: NCI-H460 lung
[28] = test system: NCI-H522 lung
[29] = test system: NCI/ADR-RES ovarian
[30] = test system: OVCAR-4 ovarian
[31] = test system: OVCAR-5 ovarian
[32] = test system: OVCAR-8 ovarian
[33] = test system: PC-3 prostate
[34] = test system: RXF 393 renal
[35] = test system: SF-268 CNS
[36] = test system: SF-539 CNS
[37] = test system: SK-MEL-2 melanoma
[38] = test system: SK-MEL-28 melanoma
[39] = test system: SK-OV-3 ovarian
[40] = test system: SN12C renal
[41] = test system: SNB-19 CNS
[42] = test system: SNB-75 CNS
[43] = test system: T-47D breast
[44] = test system: TK-10 renal
[45] = test system: U251 CNS
[46] = test system: UACC-257 melanoma
[47] = test system: UO-31 renal
[48] = test system: A498 renal
[49] = test system: DU-145 prostate
[50] = test system: HCC-2998 colon
[51] = test system: LOX IMVI melanoma
[52] = test system: OVCAR-3 ovarian
[53] = test system: RPMI-8226 leukemia
[54] = test system: SF-295 CNS
[55] = test system: SK-MEL-5 melanoma
[56] = test system: SR leukemia
[57] = test system: SW-620 colon
[58] = test system: UACC-62 melanoma

COc1cc2c3c(n(C)c(=O)c2cc1OC)-c1cc2c(cc1/C3=C\CCNCCCN)OCO2
GI50 [1]: 1.99 µM | TGI [1]: 12.5 µM | GI50 [2]: 4.53 µM | TGI [2]: > 100 µM | GI50 [3]: 1.3 µM | TGI [3]: 6.89 µM | GI50 [4]: 4.65 µM | TGI [4]: 21.1 µM | GI50 [5]: 3.44 µM | TGI [5]: 14.3 µM | GI50 [6]: 0.686 µM | TGI [6]: 13.4 µM | GI50 [7]: 0.487 µM | TGI [7]: 15.4 µM | GI50 [8]: 3.83 µM | TGI [8]: 18 µM | GI50 [9]: 1.49 µM | TGI [9]: 3.39 µM | GI50 [10]: 16.9 µM | TGI [10]: 39.6 µM | GI50 [11]: 0.927 µM | TGI [11]: 8.03 µM | GI50 [12]: 3.85 µM | TGI [12]: 15.6 µM | GI50 [13]: 1.45 µM | TGI [13]: 11.1 µM | GI50 [14]: 2.84 µM | TGI [14]: 9.52 µM | GI50 [15]: 1.86 µM | TGI [15]: > 100 µM | GI50 [16]: 1.82 µM | TGI [16]: > 100 µM | GI50 [17]: 2.08 µM | TGI [17]: 12.1 µM | GI50 [18]: 1.41 µM | TGI [18]: 10.5 µM | GI50 [19]: 5.32 µM | TGI [19]: 20.5 µM | GI50 [20]: 0.863 µM | TGI [20]: 4.02 µM | GI50 [21]: 2.77 µM | TGI [21]: 13.4 µM | GI50 [22]: 0.58 µM | TGI [22]: 3.05 µM | GI50 [23]: 2.48 µM | TGI [23]: 15.9 µM | GI50 [24]: 0.364 µM | TGI [24]: 44.4 µM | GI50 [25]: 0.987 µM | TGI [25]: 5.02 µM | GI50 [26]: 2.67 µM | TGI [26]: 12.4 µM | GI50 [27]: 0.853 µM | TGI [27]: 20.3 µM | GI50 [28]: 1.67 µM | TGI [28]: 25.5 µM | GI50 [29]: > 100 µM | TGI [29]: > 100 µM | GI50 [30]: 1.04 µM | TGI [30]: 7.56 µM | GI50 [31]: 3.04 µM | TGI [31]: 13.4 µM | GI50 [32]: 2.98 µM | TGI [32]: 44.6 µM | GI50 [33]: 2.09 µM | TGI [33]: 10.2 µM | GI50 [34]: 1.06 µM | TGI [34]: 14.5 µM | GI50 [35]: 2.43 µM | TGI [35]: 11.8 µM | GI50 [36]: 1.65 µM | TGI [36]: 9.95 µM | GI50 [37]: 5.09 µM | TGI [37]: > 100 µM | GI50 [38]: 2.87 µM | TGI [38]: 91.8 µM | GI50 [39]: 2.73 µM | TGI [39]: 11.7 µM | GI50 [40]: 1.18 µM | TGI [40]: 8.41 µM | GI50 [41]: 1.42 µM | TGI [41]: 14.7 µM | GI50 [42]: 11.4 µM | TGI [42]: > 100 µM | GI50 [43]: 2.64 µM | TGI [43]: 15.3 µM | GI50 [44]: 5.29 µM | TGI [44]: 22.4 µM | GI50 [45]: 0.47 µM | TGI [45]: 3.44 µM | TGI [46]: 39.7 µM | GI50 [47]: 42.5 µM | TGI [47]: > 100 µM

CCSc1ccc(C2C(Br)C(=O)N2c2cc(OC)c(OC)c(OC)c2)cc1 (stereo unspecified)
GI50 [1]: 0.34 µM | TGI [1]: 13.1 µM | GI50 [48]: 0.103 µM | TGI [48]: 0.74 µM | GI50 [2]: 0.598 µM | TGI [2]: > 100 µM | GI50 [4]: 0.525 µM | TGI [4]: 11.8 µM | GI50 [6]: 0.278 µM | TGI [6]: 18.2 µM | GI50 [7]: 0.23 µM | TGI [7]: 0.823 µM | GI50 [49]: 0.349 µM | TGI [49]: > 100 µM | GI50 [8]: 0.639 µM | TGI [8]: > 100 µM | GI50 [50]: 0.673 µM | TGI [50]: 29.1 µM | GI50 [9]: 0.222 µM | TGI [9]: 10.6 µM | GI50 [10]: 0.21 µM | TGI [10]: 18.2 µM | GI50 [11]: 0.214 µM | TGI [11]: 0.527 µM | GI50 [12]: 0.336 µM | TGI [12]: > 100 µM | GI50 [13]: 0.443 µM | TGI [13]: 14.1 µM | GI50 [14]: 0.229 µM | TGI [14]: > 100 µM | GI50 [15]: 0.351 µM | TGI [15]: 12.3 µM | GI50 [16]: 0.63 µM | TGI [16]: 20.9 µM | GI50 [17]: 0.0545 µM | TGI [17]: > 100 µM | GI50 [18]: 0.202 µM | TGI [18]: > 100 µM | GI50 [51]: 0.834 µM | TGI [51]: 16.6 µM | GI50 [19]: 0.128 µM | TGI [19]: 2.12 µM | GI50 [20]: 11.3 µM | TGI [20]: 32.4 µM | GI50 [21]: 0.0447 µM | TGI [21]: 17 µM | GI50 [22]: 0.488 µM | TGI [22]: 95.3 µM | GI50 [24]: 0.347 µM | TGI [24]: 88.9 µM | GI50 [25]: 3.11 µM | TGI [25]: 43.5 µM | GI50 [26]: 0.478 µM | TGI [26]: 73.4 µM | GI50 [27]: 0.539 µM | TGI [27]: 14.2 µM | GI50 [28]: 0.158 µM | TGI [28]: 4.19 µM | GI50 [29]: 0.125 µM | TGI [29]: > 100 µM | GI50 [52]: 0.109 µM | TGI [52]: 0.73 µM | GI50 [30]: 1.43 µM | TGI [30]: 40.5 µM | GI50 [31]: 0.431 µM | TGI [31]: 15.8 µM | GI50 [32]: 0.403 µM | TGI [32]: 51.8 µM | GI50 [33]: 0.297 µM | TGI [33]: > 100 µM | GI50 [53]: 0.361 µM | TGI [53]: 4.37 µM | GI50 [35]: 1.18 µM | TGI [35]: 52.7 µM | GI50 [54]: 0.087 µM | TGI [54]: > 100 µM | GI50 [36]: 0.161 µM | TGI [36]: 0.61 µM | GI50 [37]: 0.484 µM | TGI [37]: > 100 µM | GI50 [38]: 1.94 µM | TGI [38]: 30 µM | GI50 [55]: 0.0861 µM | TGI [55]: 2.84 µM | GI50 [39]: 0.392 µM | TGI [39]: > 100 µM | GI50 [40]: 0.925 µM | TGI [40]: 21 µM | GI50 [41]: 0.44 µM | TGI [41]: > 100 µM | GI50 [42]: 0.509 µM | TGI [42]: > 100 µM | GI50 [56]: 0.0765 µM | TGI [56]: 26.3 µM | GI50 [57]: 0.236 µM | TGI [57]: 20.3 µM | GI50 [43]: 16.9 µM | TGI [43]: 35.7 µM | GI50 [44]: 14.3 µM | TGI [44]: 33.4 µM | GI50 [45]: 0.345 µM | TGI [45]: 39.8 µM | GI50 [46]: 14.3 µM | TGI [46]: > 100 µM | GI50 [58]: 0.0973 µM | TGI [58]: 30 µM | GI50 [47]: 0.342 µM | TGI [47]: 15.5 µM
